Reference: patent US10519177B2, “Heterocyclic compounds and uses thereof” (Plexxikon Inc., priority 2013, dated 2019)

Key:
BRD4-BD12 (1-477) = BRD4-BD12 (1-477) (Homo sapiens (Human), UniProt O60885); experiment: Alphascreen binding assay BRD4-BD12; conditions: BRD4(1 2) H4; read-out: Biochemical activity (IC50 μM) BRD4(1 2) H4
Method: Binding of compounds of formula (I) with bromodomain 2, 3 4 was assessed using Alphascreen binding assay. The inhibition of the interaction between bromodomain and its acetylated target protein (Filippakopoulos P et al. 2012) was measured quantitatively using recombinant BRD proteins, an acetylated Histone 4 peptide and AlphaScreen™ technology. In absence of inhibition the BRD protein bound to AlphaScreen™ nickel chelate acceptor beads can interact with the acetylated Histone 4 peptide which is immobilized by the AlphaScreen™ Streptavidin coated beads. This interaction brings donor and acceptor beads in proximity. The close proximity allows the singlet oxygen produced by laser excitation of the donor beads to reach the acceptor beads and generate a luminescence signal.
Recombinant human bromodomains containing the N-terminal bromodomain (BRD2-BD1 (71-194), BRD3-BD1 (24-144) and BRD4-BD1 (44-164)) or dual bromodomains (BRD4-BD12 (1-477), BRD4-BD12 (1-472)) were prepared and purified as described in protein expression and purification session. The peptide is human Histone H41-21K5AcK8AcK12AcK16Ac-Biotin (Anaspec CA, USA).
Protocol for BRD2, BRD3 and BRD4 assay: All components are prepared in buffer composed of 50 mM HEPES pH 7.5, 100 mM NaCl, 0.01% bovine serum albumin (“BSA”), 0.01% Triton X-100, 2 mM dithiothreitol (“DTT”). 7 μL of Bromodomain protein and 7 μL of peptide are added to wells containing 1 μL of various concentrations of test compounds of formula (I) or DMSO vehicle in an Alphaplate (PerkinElmer GA, USA) and incubated for 1 hour at room temperature. 4 μL donor and acceptor bead mixture is then added with final concentrations of 7.5 μg/ml. 30 minutes after bead addition, Alpha signal is read on the Envision spectrometer (λEx 680 nm, λEm 520-620 nm). Final concentrations of bromodomain proteins and peptide are as shown below.
All data was normalized to the mean of 16 high and 16 low control wells on each plate. A four parameter curve fit of the following formula was then applied: Y=a+(b−a)/(1+(x/c)^d) Where ‘a’ is the minimum, ‘b’ is the maximum, ‘c’ is the pIC50 and ‘d’ is the Hill slope. Protein Expression and Purification
Recombinant human bromodomains containing the N-terminal bromodomain (BRD2-BD1 (71-194), BRD3-BD1 (24-144) and BRD4-BD1 (44-164)) or dual bromodomains (BRD4-BD12 (1-477), BRD4-BD12 (1-472)) were expressed in E. coli cells (in a modified pET vector) with an N-terminal six-His tag and purified using a combination of both IMAC (Ni-affinity) and size exclusion chromatography steps.
Recombinant BRD proteins were expressed using the E. coli strain BL21-CodonPlus (DE3) (Agilent Technologies CA, USA). Cells were grown in Terrific Broth (TB) media to an OD600 of 1.2 at 37° C. at which temperature was reduced to 25° C., protein was induced with 1.0 mM ispropyl-β-D-thiogalactopyranoside (“IPTG”) for 12-18 hours and harvested by centrifugation at 8000×g for 20 minutes. Cells were re-suspended in 0.1M K2PO4 pH 8.0, 250 mM NaCl, 10% Glycerol, 0.75% NP-40, 25 mM Imidazole, 5 mM beta-mercaptoethanol (“BME”) with 0.2 mg/ml Lysosyme, 2.0 mM phenylmethanesulfonyl fluoride (“PMSF”), 25 μg/ml DNAse I, incubated on ice for 30 minutes and lyzed with a cell disruptor (MicroFluidics MA, USA). The lysate was clarified by centrifugation at 20,000×g for 2 hours. The protein was captured with Ni-NTA resin (Life Technologies, USA). Contaminating proteins were washed off with 25 mM Tris-HCl pH 8.3, 250 mM NaCl, 12% Glycerol and 50 mM Imidazole. Following 3× wash steps, protein was eluted step wise using a 50 mM HEPES pH 7.5, 500 mM NaCl and 400 mM Imidazole. The protein was further purified using Gel Filtration column 26/600 Superdex 200 (GE Biosciences NJ, USA) in 50 mM HEPES pH 7.5, 250 mM NaCl. The protein was aliquoted and flash-frozen in liquid Nitrogen.

MV-4-11 cells = experiment: Oncology cell growth assay MV-4-11 (CellTiter Glo); type: cell-based; conditions: Homo sapiens, MV4-11, 72 h; MV-4-11, 3d growth; read-out: Cell activity (IC50 μM) MV-4-11 3d-Growth
Procedure, shortened: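 Growth read by CellTiter Glo luminescence after 72 h compound treatment of MLL-AF4-bearing MV-4-11 cells (3000/well). Titration: 8 points, 1:3 steps, maximum 10 μM, 0.2% DMSO final. Data normalized to DMSO wells, four-parameter fit gives pIC50.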

Row | Structure (SMILES) | IC50 (BRD4-BD12 (1-477)) | IC50 (MV-4-11 cells)
1 | Cc1ccc(-c2cn([C@@H](C)c3ccccn3)c3cc(-c4c(C)noc4C)cnc23)cn1 [P-1019, 3,5-dimethyl-4-[3-(6-methyl-3-pyridyl)-1-[(1S)-1-(2-pyridyl)ethyl]pyrrolo[3,2-b]pyridin-6-yl]isoxazole] | < 1 µM | < 1 µM
2 | COc1ncc(-c2cn(C(c3ccccc3)c3ccccn3)c3cc(-c4c(C)noc4C)ccc23)cn1 (centres unmarked) [P-1039, 4-[3-(2-methoxypyrimidin-5-yl)-1-[phenyl(2-pyridyl)methyl]indol-6-yl]-3,5-dimethyl-isoxazole] | < 1 µM | < 1 µM
3 | COC(=O)c1ccc(-c2cn(C(c3ccccn3)C3CCCCC3)c3cc(-c4c(C)noc4C)cnc23)cc1 (centres unmarked) [P-1016, methyl 4-[1-[cyclohexyl(2-pyridyl)methyl]-6-(3,5-dimethylisoxazol-4-yl)pyrrolo[3,2-b]pyridin-3-yl]benzoate] | < 1 µM | < 1 µM
4 | Cc1noc(C)c1-c1cnc2c(-c3ccc(C4(C(=O)O)CC4)cc3)cn([C@H](c3ccccn3)C3CC3)c2c1 [P-1032, 1-[4-[1-[(S)-cyclopropyl(2-pyridyl)methyl]-6-(3,5-dimethylisoxazol-4-yl)pyrrolo[3,2-b]pyridin-3-yl]phenyl]cyclopropanecarboxylic acid] | < 1 µM | < 1 µM
5 | COC(=O)c1ccc(-c2cn(Cc3ccccc3F)c3cc(-c4c(C)noc4C)cnc23)cc1 [P-0925, methyl 4-[6-(3,5-dimethylisoxazol-4-yl)-1-[(2-fluorophenyl)methyl]pyrrolo[3,2-b]pyridin-3-yl]benzoate] | < 1 µM | < 1 µM
6 | CC[C@@H](c1ccccn1)n1cc(-c2ccc(C#N)cc2)c2ncc(-c3c(C)noc3C)cc21 [P-0970, 4-[6-(3,5-dimethylisoxazol-4-yl)-1-[(1S)-1-(2-pyridyl)propyl]pyrrolo[3,2-b]pyridin-3-yl]benzonitrile] | < 1 µM | < 1 µM
7 | Cc1ccc(-c2cn(CC3(C)CCOCC3)c3cc(-c4c(C)noc4C)cnc23)cn1 [P-0972, 3,5-dimethyl-4-[3-(6-methyl-3-pyridyl)-1-[(4-methyltetrahydropyran-4-yl)methyl]pyrrolo[3,2-b]pyridin-6-yl]isoxazole] | < 1 µM | < 1 µM
8 | CC[C@@H](c1ccccn1)n1cc(-c2ccc(C)c(C(=O)O)c2)c2ncc(-c3c(C)noc3C)cc21 [P-1024, 5-[6-(3,5-dimethylisoxazol-4-yl)-1-[(1S)-1-(2-pyridyl)propyl]pyrrolo[3,2-b]pyridin-3-yl]-2-methyl-benzoic acid] | < 1 µM | < 1 µM
9 | COC(=O)c1ccc(-n2cc(P(=O)(c3ccccc3)c3ccccc3)c3cc(-c4c(C)noc4C)cnc32)cc1 [P-0950, methyl 4-[5-(3,5-dimethylisoxazol-4-yl)-3-diphenylphosphoryl-pyrrolo[2,3-b]pyridin-1-yl]benzoate] | < 1 µM | < 1 µM
10 | Cc1noc(C)c1-c1cnc2c(I)cn(Cc3ccncc3)c2c1 [P-0935, 4-[3-iodo-1-(4-pyridylmethyl)pyrrolo[3,2-b]pyridin-6-yl]-3,5-dimethyl-isoxazole] | < 1 µM | < 1 µM
11 | Cc1noc(C)c1-c1cnc2c(-c3ccc(C(=O)O)cc3)cn(C(c3ccccn3)C3CCCC3)c2c1 (centres unmarked) [P-0995, 4-[1-[cyclopentyl(2-pyridyl)methyl]-6-(3,5-dimethylisoxazol-4-yl)pyrrolo[3,2-b]pyridin-3-yl]benzoic acid] | < 1 µM | < 1 µM
12 | Cc1cc(-c2cn(C(c3ccccn3)C3CCCC3)c3cc(-c4c(C)noc4C)cnc23)ccc1C(=O)O (centres unmarked) [P-1038, 4-[1-[cyclopentyl(2-pyridyl)methyl]-6-(3,5-dimethylisoxazol-4-yl)pyrrolo[3,2-b]pyridin-3-yl]-2-methyl-benzoic acid] | < 1 µM | < 1 µM
13 | Cc1cc(-c2cn(C(c3ccccc3)c3ccccn3)c3cc(-c4c(C)noc4C)ccc23)ccc1C(=O)O (centres unmarked) [P-1045, 4-[6-(3,5-dimethylisoxazol-4-yl)-1-[phenyl(2-pyridyl)methyl]indol-3-yl]-2-methyl-benzoic acid] | < 1 µM | < 1 µM
14 | CC[C@H](c1ccccn1)n1cc(-c2ccc(C(=O)OC)cc2)c2ncc(-c3c(C)noc3C)cc21 [P-0959, methyl 4-[6-(3,5-dimethylisoxazol-4-yl)-1-[(1R)-1-(2-pyridyl)propyl]pyrrolo[3,2-b]pyridin-3-yl]benzoate] | < 1 µM | < 1 µM
15 | Cc1noc(C)c1-c1cnc2c(-c3ccc(CC(=O)O)cc3)cn(Cc3ccccn3)c2c1 [P-0973, 2-[4-[6-(3,5-dimethylisoxazol-4-yl)-1-(2-pyridylmethyl)pyrrolo[3,2-b]pyridin-3-yl]phenyl]acetic acid] | < 1 µM | < 1 µM
16 | COC(=O)Cc1ccc(-c2cn(C(c3ccccc3)c3ccccn3)c3cc(-c4c(C)noc4C)cnc23)cc1 (centres unmarked) [P-0902, methyl 2-[4-[6-(3,5-dimethylisoxazol-4-yl)-1-[phenyl(2-pyridyl)methyl]pyrrolo[3,2-b]pyridin-3-yl]phenyl]acetate] | < 1 µM | < 1 µM
17 | CC[C@@H](c1ccccn1)n1cc(-c2ccc(C(=O)O)cc2Cl)c2ncc(-c3c(C)noc3C)cc21 [P-1029, 3-chloro-4-[6-(3,5-dimethylisoxazol-4-yl)-1-[(1S)-1-(2-pyridyl)propyl]pyrrolo[3,2-b]pyridin-3-yl]benzoic acid] | < 1 µM | < 1 µM
18 | Cc1ccc(-c2cn([C@@H](C)c3ccccn3)c3cc(-c4c(C)noc4C)cnc23)cc1 [P-0900, 3,5-dimethyl-4-[3-(p-tolyl)-1-[(1S)-1-(2-pyridyl)ethyl]pyrrolo[3,2-b]pyridin-6-yl]isoxazole] | < 1 µM | < 1 µM
19 | COC(=O)Cc1ccc(-c2cn(C(c3ccccn3)C3CCC3)c3cc(-c4c(C)noc4C)cnc23)cc1 (centres unmarked) [P-1013, methyl 2-[4-[1-[cyclobutyl(2-pyridyl)methyl]-6-(3,5-dimethylisoxazol-4-yl)pyrrolo[3,2-b]pyridin-3-yl]phenyl]acetate] | < 1 µM | < 1 µM
20 | Cc1noc(C)c1-c1ccc2c(-c3ccc(C(=O)O)c(F)c3)cn(C(c3ccccc3)c3ccccn3)c2c1 (centres unmarked) [P-1043, 4-[6-(3,5-dimethylisoxazol-4-yl)-1-[phenyl(2-pyridyl)methyl]indol-3-yl]-2-fluoro-benzoic acid] | < 1 µM | < 1 µM
21 | Cc1noc(C)c1-c1cnc2c(-c3csc(C(=O)O)c3)cn([C@@H](C)c3ccccn3)c2c1 [P-1005, 4-[6-(3,5-dimethylisoxazol-4-yl)-1-[(1S)-1-(2-pyridyl)ethyl]pyrrolo[3,2-b]pyridin-3-yl]thiophene-2-carboxylic acid] | < 1 µM | 1 to 10 µM
22 | CC[C@@H](c1ccccn1)n1cc(-c2ccc(C(=O)O)cc2F)c2ncc(-c3c(C)noc3C)cc21 [P-1025, 4-[6-(3,5-dimethylisoxazol-4-yl)-1-[(1S)-1-(2-pyridyl)propyl]pyrrolo[3,2-b]pyridin-3-yl]-3-fluoro-benzoic acid] | < 1 µM | < 1 µM
